Assay results: patent publication US20260272936A1, “TREATMENT OF CANCER WITH A PARG INHIBITOR” (858 Therapeutics, Inc., priority 2023, published 2026)
pIC50: −log10 of the molar value.

Assays:
Experiment in all cases: 6-day cell proliferation, nuclei count
Format in all cases: cell-based
HCC1428 cells = conditions: Homo sapiens
Text: (§1) The FU-97 (Cat #JCRB1074) human gastric cancer cell line and the Kuramochi (Cat #JCRB0098) and RMUG-S(Cat #IFO50320) human ovarian cancer cell lines were obtained from the National Institutes of Biomedical Innovation, Health and Nutrition's Japanese Collection of Research Bioresources (JCRB) (Ibaraki City, Osaka, Japan). The HCC1419 (Cat #CRL-2326) and HCC1428 (Cat #CRL-2327) human breast cancer cell lines and the NCI-H1650 (Cat #CRL-5883) and NCI-H1792 (Cat #CRL-5895) non-small cell lung cancer cell lines were obtained from ATCC (Manassas, Virginia, USA). The human gastric cancer cell lines GCIY (Cat #RCB0555) and SNU601 (Cat #CSC-C9686L) were obtained from the Riken Bioresource Research Center (Tsukuba, Ibaraki, Japan) and Creative Bioarray (Shirley, NY, USA), respectively. The T025OV ovarian cancer organoid model was developed from a patient-derived xenograft (PDX) model, which was developed from primary serous ovarian carcinoma cells obtained from Discovery Life Sciences (Huntsville, AL, USA, SN #350627149). T026OV organoids were developed from PDX cells obtained from The Jackson Laboratory (Bar Harbor, ME, USA, Cat #TM00335).
(§2) All cell lines were grown in an incubator at 37° C. in 5% CO2. The Kuramochi and SNU-601 cells were cultured in RPMI+glutaMAX™ (Thermo Fisher Scientific, Waltham, MA, USA Cat #74200120) containing 1% penicillin/streptomycin (pen/strep) (Thermo Fisher Scientific Cat #15070-063), and 10% fetal bovine serum (FBS) (Thermo Fisher Scientific Cat #A31605-02). The HCC1419, HCC1428, NCI-H1650, and NCI-H1792 cells were cultured in ATCC-modified RPMI+glutaMAX™ (Thermo Fisher Scientific Cat #A10491-01) containing 1% pen/strep and 10% FBS. The FU-97 cells were cultured in DMEM+glutaMAX™ (Thermo Fisher Scientific, Waltham, MA, USA Cat #10566-016) containing 1% pen/strep, 10% FBS and 0.01 mg/mL bovine insulin (MilliporeSigma, Burlington, MA, USA Cat #10516-5ML). The GCIY cells were cultured in MEM (Thermo Fisher Scientific Cat #11095-080) containing 1% pen/strep and 15% FBS. The RMUG-S cells were cultured in Ham's F12 medium+glutaMAX™ (Thermo Fisher Scientific Cat #31765-035) containing 10% FBS and 1% pen/strep.
(§3) Compound 1 IC50 values for inhibition of cell proliferation were determined by imaging and counting the number of nuclei after compound treatment. Cells were harvested with trypsin (Thermo Fisher Scientific, Cat #25200-056) and plated in black-walled, clear bottom 96-well Corning costar 3603 plates (VWR, Radnor, PA, USA Cat #29444-008) at 7500 cells/well (HCC1428 and HCC1419), 5000 cells/well (Kuramochi, FU-97, SNU-601), 2500 cells/well (RMUG-S, GCIY, NCI-H1650) or 1000 cells/well (NCI-H1792) in 100 μL normal growth media and incubated overnight at 37° C., 5% CO2. The following day, a 1000× Compound 1 concentration curve was prepared by serial dilution of Compound 1 in 100% DMSO. The 1000× Compound 1 concentration curve was diluted 1:200 into growth media to generate a 5× concentration curve in 0.5% DMSO/growth medium before addition of 25 μL of the 5× compound to the wells. Control wells received 25 μL of 0.5% DMSO/media alone (negative control wells) or 50 μM Compound 1 (positive controls; 10 μM Compound 1 final). The plate was mixed gently on a plate shaker, covered with Breathe-Easy biofilm (Diversified Biotech, Cat #BEM-1), and incubated at 37° C., 5% CO2 for 6 days. Following the incubation period, a 125 μL fixation/permeabilization solution containing 8% paraformaldehyde (Fisher Scientific, Cat #50-980-495, part of Thermo Fisher Scientific) and 0.2% Triton X-100 (Thermo Fisher Scientific, Cat #327372500) in PBS was added to each well of the plate, and the plates were incubated at room temperature for 20 min. The solution was aspirated and cells washed by the addition of 100 μL PBS. After aspiration of the PBS, nuclei were stained by the addition of 100 μL 1 μg/mL DAPI (Thermo Fisher Cat #62248) in PBS. […]

RMUG-S cells = conditions: Homo sapiens, 144 h
Text: as §1, §2, §3

HCC1419 cells = conditions: Homo sapiens
Text: as §1, §2, §3

NCI-H1792 cells = conditions: Homo sapiens
Text: as §1, §2, §3

NCI-H1650 cells = conditions: Homo sapiens
Text: as §1, §2, §3

Kuramochi cells = conditions: Homo sapiens, 144 h
Text: as §1, §2, §3

GCIY cells = conditions: Homo sapiens, 144 h
Text: as §1, §2, §3

SNU-601 cells = conditions: Homo sapiens
Text: as §1, §2, §3

FU-97 cells = conditions: Homo sapiens, Fu97, 144 h
Text: as §1, §2, §3

[1] = read-out: IC50 inhibition of proliferation

For `[2H]C([2H])(c1cnn(C)c1)N1C(=O)c2cc(S(=O)(=O)NC3(C)CC3)ccc2N2C1=NC[C@H]2C` [Compound 1, (R)-1-methyl-4-((1-methyl-1H-pyrazol-4-yl)methyl-d2)-N-(1-methylcyclopropyl)-5-oxo-1,2,4,5-tetrahydroimidazo[1,2-a]quinazoline-7-sulfonamide], the IC90 (HCC1428 cells; 144 h, HCC1428, 6 days, geometric mean, read-out: IC90 inhibition of proliferation) was 363 nM, the pIC50 (HCC1428 cells; HCC1428, 144 h, read-out: IC50 inhibition of proliferation) was 6.88 and the pIC50 (RMUG-S cells; [1]) was 7.12. For the same compound, the IC90 (RMUG-S cells; RMUG-S, 6 days, geometric mean, read-out: IC90 inhibition of proliferation) was 208 nM, the IC90 (HCC1419 cells; 144 h, HCC1419, 6 days, geometric mean, read-out: IC90 inhibition of proliferation) was 206 nM and the pIC50 (HCC1419 cells; HCC1419, 144 h, read-out: IC50 inhibition of proliferation) was 7.30. The IC90 (NCI-H1792 cells; 144 h, NCI-H1792, 6 days, geometric mean, read-out: IC90 inhibition of proliferation) was 4280 nM, the pIC50 (NCI-H1792 cells; NCI-H1792, 144 h, read-out: IC50 inhibition of proliferation) was 5.94 and the IC90 (NCI-H1650 cells; 144 h, NCI-H1650, 6 days, geometric mean, read-out: IC90 inhibition of proliferation) was 320 nM. The pIC50 (NCI-H1650 cells; NCI-H1650, 144 h, read-out: IC50 inhibition of proliferation) was 7.00, the pIC50 (Kuramochi cells; [1]) was 7.34 and the IC90 (Kuramochi cells; Kuramochi, 6 days, geometric mean, read-out: IC90 inhibition of proliferation) was 133 nM. It also gave an IC90 (GCIY cells; 6 days, geometric mean, read-out: IC90 inhibition of proliferation) of 125 nM, a pIC50 (GCIY cells; [1]) of 7.55 and an IC90 (SNU-601 cells; 144 h, SNU-601, 6 days, geometric mean, read-out: IC90 inhibition of proliferation) of 539 nM. The pIC50 (SNU-601 cells; SNU-601, 144 h, read-out: IC50 inhibition of proliferation) was 6.83, the pIC50 (FU-97 cells; [1]) was 6.75 and the IC90 (FU-97 cells; FU-97, 6 days, geometric mean, read-out: IC90 inhibition of proliferation) was 833 nM.
